Starred links: 1 amine or outer side, 2 acyl side, 3 side chain; linkers in the order of their positions; H or OH if unused. Non-standard residues stand in square brackets, D forms with d. Residues, ends and D or L forms follow the SMILES beside them. *: point of attachment. X10 = CNC(=N)NCCC[C@H](NC(=O)[C@H](CC(C)C)NCCN*)C(=O)N[C@@H](Cc1ccccc1)C(N)=O; X1 = NC(=O)C[C@@H](C(=O)[*:2])N(C[C@@H](N)Cc1ccc(O)cc1)[*:1]; NαAmidinoTrp = N=C(N)N[C@@H](Cc1c[nH]c2ccccc12)C(=O)*; Butyryl(4-indol-3-yl) = O=C(CCCc1c[nH]c2ccccc12)*; X8 = O=C([C@H](Cc1ccc2ccccc2n1)N[*:1])[*:2]; Phe(4-F) = N[C@@H](Cc1ccc(F)cc1)C(=O)O; Arg(Me) = CNC(=N)NCCC[C@H](N)C(=O)O; 4Pal = N[C@@H](Cc1ccncc1)C(=O)O; d3Pal = N[C@H](Cc1cccnc1)C(=O)O; Hexanoyl = CCCCCC(=O)*; Bz = O=C(c1ccccc1)*; azaGly = NNC(=O)O

T1 sequence (Q969F8 whole entry L364H): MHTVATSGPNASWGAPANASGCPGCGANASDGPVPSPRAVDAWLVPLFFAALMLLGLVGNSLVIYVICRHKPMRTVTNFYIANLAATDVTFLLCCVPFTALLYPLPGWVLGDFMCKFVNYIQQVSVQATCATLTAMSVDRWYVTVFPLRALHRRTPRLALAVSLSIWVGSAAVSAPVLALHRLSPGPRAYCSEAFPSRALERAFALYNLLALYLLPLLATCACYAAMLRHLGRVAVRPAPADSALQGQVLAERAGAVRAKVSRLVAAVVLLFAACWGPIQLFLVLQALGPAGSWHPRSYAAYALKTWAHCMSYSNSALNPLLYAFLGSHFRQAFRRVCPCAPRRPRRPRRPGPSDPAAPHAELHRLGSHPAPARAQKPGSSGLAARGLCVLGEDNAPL

The experiment concerns the target T1, hOT7T175 (Homo sapiens, UniProt Q969F8).
T1 construct: expressed in transfected cells
Put plainly: Intracellular Ca ion level-increasing activity using FLIPR (180 seconds; specific activity to Metastin (1-54)). Type of experiment: cell-based. The conditions noted are these: hOT7T175/CHO, change in intracellular calcium ion level for 180 seconds, Tables 21-23. The method, then:
In accordance with the method described in JPA 2000-312590, the intracellular Ca ion level-increasing activity was measured using FLIPR. […]
The intracellular Ca ion level-increasing activity of the synthetic peptide in hOT7T175/CHO was determined using FLIPR (Molecular Devices, Inc.).
hOT7T175/CHO was subcultured in DMEM supplemented with 10% dialyzed fetal bovine serum (hereinafter abbreviated as dFBS) and provided for the experiment (hereinafter abbreviated as 10% dFBS/DMEM). The hOT7T175/CHO was suspended in 10% dFBS-DMEM in 15×10^4 cells/ml. The suspension was inoculated on a 96-well plate for FLIPR (Black Plate Clear Bottom, Coster, Inc.) at 200 μl each (3.0×10^4 cells/200 μl), followed by incubation at 37° C. overnight in a 5% CO2 incubator. The cells thus incubated were used (hereinafter simply referred to as the cell plate). Then, 21 ml of HANKS/HBSS (9.8 g of HANKS', 0.35 g of sodium hydrogencarbonate, 20 ml of 1M HEPES; after adjusting the pH to 7.4 with 1N sodium hydroxide, the mixture was subjected to sterilization through a filter), 210 μl of […] Probenecid and 210 μl of fetal bovine serum (FBS) were mixed (HANKS/HBSS-Probenecid-FBS).
Furthermore, 2 vials of Fluo3-AM (50 μg/vial) were dissolved in 21 μL of dimethylsulfoxide and 21 μL of 20% Pluronic acid. The resulting solution was added to and mixed with 10 ml of HANKS/HBSS-Probenecid-FBS described above. After the culture medium was removed, the mixture was dispensed onto the cell plate in 100 μl each/well, followed by incubation at 37° C. for an hour in a 5% CO2 incubator (pigment loading). The peptide was dissolved in dimethylsulfoxide in 1×10^−3 M. The peptide solution was diluted with HANKS'/HBSS containing 2.5 mM Probenecid and 0.2% BSA. The dilution was transferred to a 96-well plate for FLIPR (V-Bottom plate, Coster, Inc.) (hereinafter referred to as a sample plate). After completion of the pigment loading onto the cell plate, the cell plate washed 4 times with wash buffer, which was obtained by adding 2.5 mM Probenecid to HANKS'/HBSS, using a plate washer to leave 100 μL of wash buffer after the washing. The cell plate and the sample plate were set in FLIPR and 0.05 ml of a sample from the sample plate was automatically transferred to the cell plate with the FLIPR device to promote the cell response. A change in intracellular calcium ion level for 180 seconds was measured with passage of time.
(In general: Calcium flux is commonly read through the fluorescence of an indicator in the cells.)
`CNC(=N)NCCC[C@H](NC(=O)[C@H](CC(C)C)NCCNC(=O)[C@H](Cc1ccccc1)NC(=O)[C@H](CO)NC(=O)[C@H](CC(N)=O)NC(=O)[C@H](Cc1c[nH]c2ccccc12)NC(=O)[C@H](CC(N)=O)NC(=O)[C@H](N)Cc1ccc(O)cc1)C(=O)N[C@@H](Cc1ccccc1)C(N)=O` [Compound No. 307, D-Tyr-Asn-Trp-Asn-Ser-Phe-GlyΨ(CH2NH)Leu-Arg(Me)-Phe-NH2] (H-[dY]NWNSF-X10): the “intracellular Ca ion level-increasing activity [specific activity to Metastin (1-54)]” value is listed as 1. For “Phenylacetyl-Phe-AzaGly-Leu-Arg(Me)-Trp-NH2 [Compound No. 440]”, the “intracellular Ca ion level-increasing activity [specific activity to Metastin (1-54)]” value is given as 1. As for `CNC(=N)NCCC[C@H](NC(=O)[C@H](CC(C)C)NC(=O)NNC(=O)[C@H](Cc1ccccc1)NC(=O)[C@H](CO)NC(=O)[C@H](CC(N)=O)NC(=O)[C@H](Cc1ccncc1)NC(=O)[C@@H](CC(N)=O)NC(=O)[C@H](N)Cc1ccc(O)cc1)C(=O)N[C@@H](Cc1ccc(F)cc1)C(N)=O` [Compound No. 317, D-Tyr-D-Asn-Pya(4)-Asn-Ser-Phe-AzaGly-Leu-Arg(Me)-Phe(4F)-NH2] (H-[dY][dN][4Pal]NSF[azaGly]L[Arg(Me)][Phe(4-F)]-NH2), the “intracellular Ca ion level-increasing activity [specific activity to Metastin (1-54)]” value stood at 1. `CNC(=N)NCCC[C@H](NC(=O)[C@H](CC(C)C)NC(=O)NNC(=O)[C@H](Cc1ccccc1)NC(=O)[C@H](CO)NC(=O)[C@H](CC(N)=O)NC(=O)[C@H](Cc1c[nH]c2ccccc12)NC(=O)[C@H](CC(N)=O)NC(=O)[C@H](N)Cc1cccnc1)C(=O)N[C@@H](Cc1ccccc1)C(N)=O` [Compound No. 258, D-Pya(3)-Asn-Trp-Asn-Ser-Phe-AzaGly-Leu-Arg(Me)-Phe-NH2] (H-[d3Pal]NWNSF[azaGly]L[Arg(Me)]F-NH2): the “intracellular Ca ion level-increasing activity [specific activity to Metastin (1-54)]” value came out at 2. Consider “3-(3-Indolyl)propionyl-Phe-Gly-Leu-Arg-Phe-NH2 [Compound No. 352]”, for which the “intracellular Ca ion level-increasing activity [specific activity to Metastin (1-54)]” value is recorded as “⅓”. For “4-Pyridinecarbonyl-Phe-AzaGly-Leu-Arg(Me)-Nal(2)-NH2 [Compound No. 461]”, the “intracellular Ca ion level-increasing activity [specific activity to Metastin (1-54)]” value is on record as “⅓”. Turning to “5-Methylnicotinoyl-Phe-AzaGly-Leu-Arg(Me)-Trp-NH2 [Compound No. 444]”, the “intracellular Ca ion level-increasing activity [specific activity to Metastin (1-54)]” value is given as “⅓”. For “2-Hydroxyisobutyryl-Phe-AzaGly-Leu-Arg(Me)-Trp-NH2 [Compound No. 453]”, the “intracellular Ca ion level-increasing activity [specific activity to Metastin (1-54)]” value is on record as 1. With `CNC(=N)NCCC[C@H](NC(=O)[C@H](CC(C)C)NC(=O)NNC(=O)[C@H](Cc1ccccc1)NC(=O)[C@H](CO)NC(=O)[C@H](CC(N)=O)NC(=O)[C@@H](Cc1c[nH]c2ccccc12)NC(=O)[C@H](CC(N)=O)NC[C@@H](N)Cc1ccc(O)cc1)C(=O)N[C@@H](Cc1ccccc1)C(N)=O` [Compound No. 300, TyrΨ(CH2NH)Asn-D-Trp-Asn-Ser-Phe-AzaGly-Leu-Arg(Me)-Phe-NH2] (H-[X1][dW]NSF[azaGly]L[Arg(Me)]F-NH2), the “intracellular Ca ion level-increasing activity [specific activity to Metastin (1-54)]” value turned out to be 5.

As to “1-Oxo-isochroman-3-carbonyl-AzaGly-Leu-Arg(Me)-Trp-NH2 [Compound No. 408]”, the “intracellular Ca ion level-increasing activity [specific activity to Metastin (1-54)]” value is “⅓”. Under `CNC(=N)NCCC[C@H](NC(=O)[C@H](CC(C)C)NC(=O)NNC(=O)[C@H](Cc1ccccc1)NC(=O)[C@H](CO)NC(=O)[C@H](CC(N)=O)NC(=O)[C@H](Cc1ccncc1)NC(=O)[C@H](CC(N)=O)NC(=O)[C@H](N)Cc1ccc(O)cc1)C(=O)N[C@@H](Cc1ccccc1)C(N)=O` [Compound No. 286, D-Tyr-Asn-Pya(4)-Asn-Ser-Phe-AzaGly-Leu-Arg(Me)-Phe-NH2] (H-[dY]N[4Pal]NSF[azaGly]L[Arg(Me)]F-NH2) stands 2; under `CNC(=N)NCCC[C@H](NC(=O)[C@H](CC(C)C)NC(=O)NNC(=O)[C@H](Cc1ccccc1)NC(=O)[C@H](CO)NC(=O)[C@H](CC(N)=O)NC(=O)CCCc1c[nH]c2ccccc12)C(=O)N[C@@H](Cc1ccccc1)C(N)=O` [Compound No. 267, 4-(3-Indolyl)butyryl-Asn-Ser-Phe-AzaGly-Leu-Arg(Me)-Phe-NH2] ({Butyryl(4-indol-3-yl)}-NSF[azaGly]L[Arg(Me)]F-NH2), 2; under “2-(Indol-3-yl)ethylcarbamoyl-Phe-AzaGly-Leu-Arg(Me)-Phe-NH2 [Compound No. 364]”, 1. Under `CCCCCC(=O)N[C@@H](CC(N)=O)C(=O)N[C@@H](CO)C(=O)N[C@@H](Cc1ccccc1)C(=O)NNC(=O)N[C@@H](CC(C)C)C(=O)N[C@@H](CCCNC(=N)NC)C(=O)N[C@@H](Cc1ccccc1)C(N)=O` [Compound No. 277, n-Hexanoyl-Asn-Ser-Phe-AzaGly-Leu-Arg(Me)-Phe-NH2] (Hexanoyl-NSF[azaGly]L[Arg(Me)]F-NH2) stands 2; under `CNC(=N)NCCC[C@H](NC(=O)[C@H](CC(C)C)NC(=O)NNC(=O)[C@H](Cc1ccccc1)NC(=O)[C@H](CO)NC(=O)[C@H](CC(N)=O)NC(=O)[C@H](Cc1c[nH]c2ccccc12)NC(=N)N)C(=O)N[C@@H](Cc1ccccc1)C(N)=O` [Compound No. 273, Amidino-Trp-Asn-Ser-Phe-AzaGly-Leu-Arg(Me)-Phe-NH2] (NαAmidinoTrp-NSF[azaGly]L[Arg(Me)]F-NH2), 5.

In the case of “Cyclohexanecarbonyl-Phe-AzaGly-Leu-Arg(Me)-Trp-NH2 [Compound No. 439]”, the “intracellular Ca ion level-increasing activity [specific activity to Metastin (1-54)]” value was found to be 2. Regarding “Ac-F[azaGly]L[Arg(Me)]F-NH2 [Compound No. 346]”, the “intracellular Ca ion level-increasing activity [specific activity to Metastin (1-54)]” value was 2. Under `CNC(=N)NCCC[C@H](NC(=O)[C@H](CC(C)C)NC(=O)NNC(=O)[C@H](Cc1ccccc1)NC(=O)[C@H](CO)NC(=O)[C@H](CC(N)=O)NC(=O)[C@@H](NC(=O)[C@@H](CC(N)=O)NC(=O)[C@H](N)Cc1ccc(O)cc1)[C@@H](C)O)C(=O)N[C@@H](Cc1ccccc1)C(N)=O` [Compound No. 284, D-Tyr-D-Asn-Thr-Asn-Ser-Phe-AzaGly-Leu-Arg(Me)-Phe-NH2] (H-[dY][dN]TNSF[azaGly]L[Arg(Me)]F-NH2) stands 1; under “Indole-3-carbonyl-Phe-AzaGly-Leu-Arg(Me)-Phe-NH2 [Compound No. 344]”, “½”; under `CNC(=N)NCCC[C@H](NC(=O)[C@H](CC(C)C)NC(=O)NNC(=O)[C@H](Cc1ccccc1)NC(=O)[C@H](CO)NC(=O)[C@H](CC(N)=O)NC(=O)[C@H](Cc1c[nH]c2ccccc12)NC(=O)[C@H](CC(N)=O)NC(=O)[C@@H](C)N)C(=O)N[C@@H](Cc1ccccc1)C(N)=O` [Compound No. 259, D-Ala-Asn-Trp-Asn-Ser-Phe-AzaGly-Leu-Arg(Me)-Phe-NH2] (H-[dA]NWNSF[azaGly]L[Arg(Me)]F-NH2), 1. For “Bz-A[azaGly]L[Arg(Me)]W-NH2 [Compound No. 392]”, the “intracellular Ca ion level-increasing activity [specific activity to Metastin (1-54)]” value was “⅕”. As for `CNC(=N)NCCC[C@H](NC(=O)[C@H](CC(C)C)NC(=O)NNC(=O)[C@H](Cc1ccccc1)NC(=O)[C@H](CO)NC(=O)[C@H](CC(N)=O)NC(=O)[C@H](Cc1ccc2ccccc2n1)NC(=O)[C@H](CC(N)=O)NC(=O)[C@H](N)Cc1ccc(O)cc1)C(=O)N[C@@H](Cc1ccccc1)C(N)=O` [Compound No. 301, D-Tyr-Asn-Ala(2-Qui)-Asn-Ser-Phe-AzaGly-Leu-Arg(Me)-Phe-NH2] (H-[dY]N[X8]NSF[azaGly]L[Arg(Me)]F-NH2), the “intracellular Ca ion level-increasing activity [specific activity to Metastin (1-54)]” value was 1. Take `CNC(=N)NCCC[C@H](NC(=O)[C@H](CC(C)C)NC(=O)NNC(=O)[C@H](Cc1ccccc1)NC(=O)[C@H](CO)NC(=O)[C@H](CC(N)=O)NC(=O)[C@H](Cc1c[nH]c2ccccc12)NC(=O)[C@H](N)Cc1cccnc1)C(=O)N[C@@H](Cc1ccccc1)C(N)=O` [Compound No. 289, D-Pya(3)-Trp-Asn-Ser-Phe-AzaGly-Leu-Arg(Me)-Phe-NH2] (H-[d3Pal]WNSF[azaGly]L[Arg(Me)]F-NH2): the “intracellular Ca ion level-increasing activity [specific activity to Metastin (1-54)]” value is on record as 1. For the compound “Benzoyl-PheΨ(CH2O)Gly-Leu-Arg(Me)-Trp-NH2 [Compound No. 421]”, the “intracellular Ca ion level-increasing activity [specific activity to Metastin (1-54)]” value is on record as “⅓”.

The record behind these values is patent publication US8778871B2 (Takeda Pharmaceutical Company Limited, priority 2004, dated 2014).
